Holding throughout (experiment): drug sensitivity score (DSS) (DSS (unitless, 0-50 scale)); higher = more sensitive (stronger viability inhibition); extreme values may be limits of the assay
Details in all cases: 72 h; culture: 2D

For test [1], the system named is WM852. In a few lines:
(§1)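 A 527-compound oncology library was screened in 384-well plates against melanoma cell lines and patient-derived melanoma cultures grown in 2D, the cultures at 1000–1500 cells per well. Each compound, in DMSO or water, was applied at five concentrations over a 10,000-fold range and incubated for 72 h at 37 °C before CellTiter-Glo luminescence readout of viability. A drug sensitivity score, a modified area-under-curve measure, was calculated from curves fitted in the in-house Breeze software.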

The test system of test [2] is FM-MEL-2. A digest of the protocol:
as §1

Test [3] has as its system FM-MEL-3. In a few lines: as §1
Test [4] deals with FM-MEL-6. In a few lines: as §1
For test [5], the system named is WM165. In a few lines: as §1
The test system of test [6] is SK-MEL-2. In a few lines: as §1
Test [7] deals with Bowes. A digest of the protocol: as §1
Test [8] concerns SK-MEL-28. A digest of the protocol: as §1

For `CC[C@@H]1C(=O)N(C)c2cnc(Nc3ccc(C(=O)NC4CCN(C)CC4)cc3OC)nc2N1C1CCCC1` [BI 2536], the drug sensitivity score in test [1] stood at 18; in test [2], 1.7; in test [3] it was 4.3; in test [4], 6.7; in test [5] it was 19.6; in test [6], 10.5. Besides, the drug sensitivity score in test [7] came out at 19.7; in test [8] it was 3.5.

As to `COc1c(C)cnc(Cn2cnc3c(Cl)nc(N)nc32)c1C` [BIIB021], the drug sensitivity score in test [1] amounted to 8.7; in test [2], 11.6; in test [3] it was 15.5; in test [4], 7.8; in test [5], 17.5; in test [6] it was 10.9. Moreover, the drug sensitivity score in test [7] came to 13.2; in test [8], 8.9.

Regarding `CC1(C)C(C(=O)Nc2ccc(S(=O)(=O)c3ccc(NC(=O)C4C(C)(C)C4(C)C)cc3)cc2)C1(C)C` [BRD7116], the drug sensitivity score in test [1] is 0; in test [2], 2.1; in test [3], 0.6; in test [4], 0; in test [5], 0; in test [6], 0. Moreover, the drug sensitivity score came out at 0.1 in test [7] and 0 in test [8].

In the case of `O=C(Nc1cccc(Nc2ncc(Br)c(NCCc3cnc[nH]3)n2)c1)N1CCCC1` [BX-912], the drug sensitivity score in test [1] stood at 1.9; in test [2] it was 5.9; in test [3], 0.9; in test [4], 0.5; in test [5] it was 8.2; in test [6], 0. Moreover, the drug sensitivity score is 5.6 in test [7] and 1.9 in test [8].

For `Cc1ccc(NC(=O)c2ccc(CN3CC[C@H](N(C)C)C3)c(C(F)(F)F)c2)cc1Nc1nccc(-c2cncnc2)n1` [Bafetinib], the drug sensitivity score in test [1] was 0; in test [2], 2.3; in test [3], 1.7; in test [4] it was 0; in test [5] it was 2.9; in test [6], 0. Moreover, the drug sensitivity score in test [7] worked out at 0; in test [8] it was 1.3.

As for `CCS(=O)(=O)N1CC(CC#N)(n2cc(-c3ncnc4[nH]ccc34)cn2)C1` [Baricitinib], the drug sensitivity score in test [1], in test [2], in test [3], in test [4], in test [5] and in test [6] was 0 in each case. For the same molecule, the drug sensitivity score in test [7] and in test [8] was 0 throughout.

As for `O=C(/C=C/c1cccc(S(=O)(=O)Nc2ccccc2)c1)NO` [Belinostat], the drug sensitivity score in test [1] was 5.7; in test [2] it was 9.4; in test [3], 12.5; in test [4] it was 13.9; in test [5], 17.7; in test [6], 13.6. In addition, the drug sensitivity score in test [7] was 7.9; in test [8], 10.6.

In the case of `N#CC(c1ccnc(OCc2ccc(CN3CCOCC3)cc2)n1)c1nc2ccccc2s1` (stereo not given) [Bentamapimod], the drug sensitivity score in test [1] was 0.1; in test [2] it was 3.9; in test [3] it was 5.9; in test [4] it was 2.8; in test [5], 1.1; in test [6] it was 0. Also, the drug sensitivity score in test [7] is 1.4; in test [8] it was 0.8.

`C=C(c1ccc(C(=O)O)cc1)c1cc2c(cc1C)C(C)(C)CCC2(C)C` [Bexarotene]: the drug sensitivity score in test [1] came to 0; in test [2] it was 1.3; in test [3], 2.9; in test [4], 0.4; in test [5] it was 0; in test [6] it was 0. In addition, the drug sensitivity score in test [7] was 0; in test [8] it was 2.3.

As for `CC(O)(CS(=O)(=O)c1ccc(F)cc1)C(=O)Nc1ccc(C#N)c(C(F)(F)F)c1` (stereo not given) [Bicalutamide], the drug sensitivity score in test [1] is 0.8; in test [2], 0; in test [3], 1.7; in test [4] it was 0; in test [5], 0; in test [6], 0. Also, the drug sensitivity score in test [7] amounted to 0; in test [8] it was 0.1.

(Values after the supplement of paper PMC8633005.)
